Results: PubChem BioAssay AID264 (DTP/NCI, 2004)
Several values for one entry are separate records, joined by “and”; a condition that tells them apart may be missing. Equal values may be shown once. Inconclusive results are not listed.

Tested on: nude mice, LX-1 lung xenograft intrarenal, tumor weight T/C
Assay: NCI In Vivo Anticancer Drug Screen. Data for tumor model Human Lung LX-1 Xenograft (intrarenal inoculation) in NU/NU Swiss (nude) mice
Conditions: endpoint: mean tumor weight change, higher = larger tumour
Outline: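 Compound-treated mice carrying transplanted tumors were compared with vehicle-treated controls. Tumor size was the measured end point, and the value is the treated-group measurement divided by the control-group measurement (T/C).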

[1] = dose: 25.0 mg/kg/injection, schedule: Q01DX010 (sc), vehicle: saline
[2] = dose: 50.0 mg/kg/injection, schedule: Q01DX010 (sc), vehicle: saline
[3] = dose: 100.0 mg/kg/injection, schedule: Q01DX010 (sc), vehicle: saline
[4] = dose: 300.0 mg/kg/injection, schedule: Q04DX003 (sc), vehicle: suspension in saline
[5] = dose: 600.0 mg/kg/injection, schedule: Q04DX003 (sc), vehicle: suspension in saline
[6] = dose: 1200.0 mg/kg/injection, schedule: Q04DX003 (sc), vehicle: suspension in saline
[7] = dose: 2400.0 mg/kg/injection, schedule: Q04DX003 (sc), vehicle: suspension in saline
[8] = dose: 300.0 mg/kg/injection, schedule: Q04DX003 (sc), vehicle: Klucel (hydroxypropylcellulose) (HPC)
[9] = dose: 600.0 mg/kg/injection, schedule: Q04DX003 (sc), vehicle: Klucel (hydroxypropylcellulose) (HPC)
[10] = dose: 1200.0 mg/kg/injection, schedule: Q04DX003 (sc), vehicle: Klucel (hydroxypropylcellulose) (HPC)

SMILES: CC(Cc1ccc(O)c(O)c1)C(C)Cc1ccc(O)c(O)c1 (stereo unspecified)
- T/C (dose: 300.0 mg/kg/injection, schedule: Q04DX003 (sc), vehicle: saline + alcohol): 107 % of control
- T/C (dose: 600.0 mg/kg/injection, schedule: Q04DX003 (sc), vehicle: saline + alcohol): 90 % of control
- T/C (dose: 1200.0 mg/kg/injection, schedule: Q04DX003 (sc), vehicle: saline + alcohol): 104 % of control
- T/C (dose: 2400.0 mg/kg/injection, schedule: Q04DX003 (sc), vehicle: saline + alcohol): 66 % of control

SMILES: O=CC(O)C(O)C(O)C(O)C(=O)O.[NH-]C1CCCCC1[NH-].[Pt+2] (stereo unspecified)
- T/C (dose: 9.38 mg/kg/injection, schedule: Q04DX003 (sc), vehicle: suspension in saline): 39 % of control
- T/C (dose: 18.75 mg/kg/injection, schedule: Q04DX003 (sc), vehicle: suspension in saline): 46 % of control

SMILES: C=CCNc1nc2c(s1)CCc1cc(OC)c(OC)cc1-2
- T/C (dose: 150.0 mg/kg/injection, schedule: Q04DX003 (sc), vehicle: saline with Tween-80): 89 % of control

SMILES: O=NN(CCCl)C(=O)NCCCl
- T/C (dose: 4.0 mg/kg/injection, schedule: Q01DX010 (sc), vehicle: saline): 44 % of control and 51 % of control and 65 % of control
- T/C (dose: 7.5 mg/kg/injection, schedule: Q04DX003 (sc), vehicle: suspension in saline): 90 % of control
- T/C (dose: 8.0 mg/kg/injection, schedule: Q01DX010 (sc), vehicle: saline): 16 % of control and 17 % of control
- T/C (dose: 13.33 mg/kg/injection, schedule: Q04DX003 (sc), vehicle: saline): 9 % of control
- T/C (dose: 15.0 mg/kg/injection, schedule: Q04DX003 (sc), vehicle: suspension in saline): 31 % of control
- T/C (dose: 16.0 mg/kg/injection, schedule: Q01DX010 (sc), vehicle: saline): -75 % of control and -72 % of control and -67 % of control
- T/C (dose: 26.65 mg/kg/injection, schedule: Q04DX003 (sc), vehicle: saline): -32 % of control
- T/C (dose: 30.0 mg/kg/injection, schedule: Q04DX003 (sc), vehicle: suspension in saline): 1 % of control
- T/C (dose: 32.0 mg/kg/injection, schedule: Q01DX010 (sc), vehicle: saline): -9 % of control and -3 % of control
- T/C (dose: 53.3 mg/kg/injection, schedule: Q04DX003 (sc), vehicle: saline): -84 % of control
- T/C (dose: 60.0 mg/kg/injection, schedule: Q04DX003 (sc), vehicle: suspension in saline): 16 % of control

SMILES: CN(CO)c1nc(N(C)CO)nc(N(C)CO)n1
- T/C [1]: 92 % of control
- T/C [2]: 57 % of control
- T/C [3]: 49 % of control

SMILES: OCCO
- T/C (dose: 8.0 % in 0.5 ml injection vol, schedule: Q04DX003 (sc), vehicle: water): 121 % of control
- T/C (dose: 16.0 % in 0.5 ml injection vol, schedule: Q04DX003 (sc), vehicle: water): 108 % of control

SMILES: C=C1CC2(OC1=O)C(=O)N(C)c1ccc(I)cc12 (stereo unspecified)
- T/C (dose: 150.0 mg/kg/injection, schedule: Q04DX003 (sc), vehicle: suspension in saline): 68 % of control
- T/C [4]: 34 % of control
- T/C [5]: 34 % of control
- T/C [6]: 62 % of control

SMILES: COC1/C=C/O[C@@]2(C)Oc3c(C)c(O)c4c(O)c(cc(O)c4c3C2=O)NC(=O)/C(C)=C\C=C\[C@H](C)C(O)[C@@H](C)[C@@H](O)[C@@H](C)[C@H](OC(C)=O)[C@@H]1C (stereo partly specified)
- T/C [4]: 60 % of control
- T/C [5]: 84 % of control
- T/C [6]: 53 % of control
- T/C [7]: 64 % of control

SMILES: CC1(C)OCC(CO)(Nc2nc(N3CC3)nc(N3CC3)n2)CO1
- T/C (dose: 1.25 mg/kg/injection, schedule: Q01DX010 (sc), vehicle: saline): 74 % of control

SMILES: COC1C(O)CC(OC2CC(OC3CC(O[C@@H]4C(=O)c5c(cc6cc(OC7CC(OC8CC(O)C(O)C(C)O8)C(O)C(C)O7)c(C)c(O)c6c5O)C[C@H]4[C@H](OC)C(=O)[C@@H](O)[C@@H](C)O)OC(C)C3O)OC(C)C2O)OC1C (stereo partly specified)
- T/C (dose: 0.18 mg/kg/injection, schedule: Q01DX010 (sc), vehicle: saline): 62 % of control
- T/C (dose: 0.37 mg/kg/injection, schedule: Q01DX010 (sc), vehicle: saline): 32 % of control

SMILES: O=C(O)/C=C/C(=O)Nc1ccc(Cl)c(Cl)c1
- T/C (dose: 100.0 mg/kg/injection, schedule: Q04DX003 (sc), vehicle: Klucel (hydroxypropylcellulose) (HPC)): 95 % of control
- T/C (dose: 200.0 mg/kg/injection, schedule: Q04DX003 (sc), vehicle: Klucel (hydroxypropylcellulose) (HPC)): 91 % of control

SMILES: C=CC(=O)NCNC(=O)C=C
- T/C [1]: 88 % of control
- T/C [2]: 103 % of control
- T/C [3]: 64 % of control

SMILES: COC(=O)C(F)C(Br)C(=O)OC (stereo unspecified)
- T/C (dose: 18.75 mg/kg/injection, schedule: Q04DX003 (sc), vehicle: saline with Tween-80): 91 % of control
- T/C (dose: 37.5 mg/kg/injection, schedule: Q04DX003 (sc), vehicle: saline with Tween-80): 111 % of control
- T/C (dose: 75.0 mg/kg/injection, schedule: Q04DX003 (sc), vehicle: saline with Tween-80): 90 % of control

SMILES: CCC[CH2][Hg][Cl]
- T/C (dose: 18.75 mg/kg/injection, schedule: Q04DX003 (sc), vehicle: Klucel (hydroxypropylcellulose) (HPC)): 69 % of control
- T/C (dose: 37.5 mg/kg/injection, schedule: Q04DX003 (sc), vehicle: Klucel (hydroxypropylcellulose) (HPC)): 53 % of control

SMILES: Oc1ccc(O)cc1
- T/C (dose: 25.0 mg/kg/injection, schedule: Q04DX003 (sc), vehicle: saline): 102 % of control
- T/C (dose: 50.0 mg/kg/injection, schedule: Q04DX003 (sc), vehicle: saline): 85 % of control and 98 % of control
- T/C (dose: 100.0 mg/kg/injection, schedule: Q04DX003 (sc), vehicle: saline): 92 % of control and 93 % of control
- T/C (dose: 200.0 mg/kg/injection, schedule: Q04DX003 (sc), vehicle: saline): 109 % of control

SMILES: O=C1NC(=O)/C(=C/C=C/c2ccccc2)S1
- T/C (dose: 300.0 mg/kg/injection, schedule: Q04DX003 (sc), vehicle: saline with Tween-80): 87 % of control
- T/C (dose: 600.0 mg/kg/injection, schedule: Q04DX003 (sc), vehicle: saline with Tween-80): 118 % of control
- T/C (dose: 1200.0 mg/kg/injection, schedule: Q04DX003 (sc), vehicle: saline with Tween-80): 94 % of control
- T/C (dose: 2400.0 mg/kg/injection, schedule: Q04DX003 (sc), vehicle: saline with Tween-80): 62 % of control

SMILES: BrC[P+](CBr)(CBr)CBr
- T/C (dose: 400.0 mg/kg/injection, schedule: Q04DX003 (sc), vehicle: saline with Tween-80): 156 % of control

SMILES: Oc1ccc(SCc2ccc(NCc3ccccc3)cc2)cc1
- T/C (dose: 25.0 mg/kg/injection, schedule: Q01DX010 (sc), vehicle: saline with Tween-80): 97 % of control
- T/C (dose: 50.0 mg/kg/injection, schedule: Q01DX010 (sc), vehicle: saline with Tween-80): 44 % of control
- T/C (dose: 100.0 mg/kg/injection, schedule: Q01DX010 (sc), vehicle: saline with Tween-80): 53 % of control
- T/C (dose: 400.0 mg/kg/injection, schedule: Q01DX010 (sc), vehicle: saline with Tween-80): 190 % of control
- T/C (dose: 800.0 mg/kg/injection, schedule: Q01DX010 (sc), vehicle: saline with Tween-80): 54 % of control

SMILES: O=NN(CCCl)C(=O)Oc1cc(Cl)c(Cl)cc1Cl
- T/C [8]: 104 % of control
- T/C [9]: 53 % of control
- T/C [10]: 29 % of control

SMILES: C/C=C(\C)c1cc(=O)c2c(C)cc3c(c2o1)C(=O)c1c(O)c(C2CC(C)(N(C)C)C(O)C(C)O2)cc(C2CC(N(C)C)C(O)C(C)O2)c1C3=O (stereo unspecified)
- T/C (dose: 2.0 mg/kg/injection, schedule: Q04DX003 (sc), vehicle: saline): 76 % of control
- T/C (dose: 4.0 mg/kg/injection, schedule: Q04DX003 (sc), vehicle: saline): 89 % of control
- T/C (dose: 8.0 mg/kg/injection, schedule: Q04DX003 (sc), vehicle: saline): 80 % of control
- T/C (dose: 16.0 mg/kg/injection, schedule: Q04DX003 (sc), vehicle: saline): 35 % of control

SMILES: N=c1nc2n(cc1F)[C@@H]1O[C@H](CO)[C@@H](O)[C@@H]1O2
- T/C [4]: 102 % of control
- T/C [5]: 57 % of control
- T/C [6]: 80 % of control
- T/C [7]: 87 % of control

SMILES: COc1ccc2[nH]c3ccc4cc[n+](CCN5CCC(C6CCN(CC[n+]7ccc8ccc9[nH]c%10ccc(OC)cc%10c9c8c7)CC6)CC5)cc4c3c2c1
- T/C (dose: 150.0 mg/kg/injection, schedule: Q04DX003 (sc), vehicle: Klucel (hydroxypropylcellulose) (HPC)): 88 % of control
- T/C [8]: 96 % of control
- T/C [9]: 83 % of control
- T/C [10]: 93 % of control

SMILES: CCCCn1cnc2c(=S)nc[nH]c21
- T/C [4]: 69 % of control
- T/C [5]: 53 % of control
- T/C [6]: 61 % of control
- T/C [7]: 57 % of control

SMILES: C[n+]1ccc2cc(N)c3c4ccccc4sc3c2c1
- T/C (dose: 6.25 mg/kg/injection, schedule: Q04DX003 (sc), vehicle: saline with Tween-80): 67 % of control
- T/C (dose: 12.5 mg/kg/injection, schedule: Q04DX003 (sc), vehicle: saline with Tween-80): 93 % of control
- T/C (dose: 25.0 mg/kg/injection, schedule: Q04DX003 (sc), vehicle: saline with Tween-80): 70 % of control
- T/C (dose: 50.0 mg/kg/injection, schedule: Q04DX003 (sc), vehicle: saline with Tween-80): 74 % of control
